The experiment relates to P388 leukemia ip, CD2F1 mice, survival T/C. Nature of the experiment: NCI In Vivo Anticancer Drug Screen. Data for tumor model P388 Leukemia (intraperitoneal) in CD2F1 (CDF1) mice. The following applies: endpoint: median survival time, higher = longer survival. An outline of the steps: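 Mice carrying the transplanted tumor received test compound or vehicle. Survival was recorded in each group, and the value is the treated-group measurement divided by that of the vehicle-treated control group.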

Where [1] appears, read: dose: 50.0 mg/kg/injection, schedule: Q01DX009 (ip), vehicle: Klucel (hydroxypropylcellulose) (HPC).
Where [2] appears, read: dose: 100.0 mg/kg/injection, schedule: Q01DX009 (ip), vehicle: Klucel (hydroxypropylcellulose) (HPC).
Where [3] appears, read: dose: 12.5 mg/kg/injection, schedule: Q01DX009 (ip), vehicle: Klucel (hydroxypropylcellulose) (HPC).
Where [4] appears, read: dose: 25.0 mg/kg/injection, schedule: Q01DX009 (ip), vehicle: Klucel (hydroxypropylcellulose) (HPC).
Setting [5] is: dose: 25.0 mg/kg/injection, schedule: Q01DX009 (ip), vehicle: saline.
Setting [6] is: dose: 100.0 mg/kg/injection, schedule: Q04DX002 (ip), vehicle: saline.
Where [7] appears, read: dose: 200.0 mg/kg/injection, schedule: Q04DX002 (ip), vehicle: saline.
The mark [8] stands for this setting: dose: 50.0 mg/kg/injection, schedule: Q01DX005 (ip), vehicle: saline with Tween-80.
Where [9] appears, read: dose: 100.0 mg/kg/injection, schedule: Q01DX005 (ip), vehicle: saline with Tween-80.
Setting [10] is: dose: 200.0 mg/kg/injection, schedule: Q01DX005 (ip), vehicle: saline with Tween-80.

Experimental findings from PubChem BioAssay AID330 (DTP/NCI, 2004) are described below.

Where “and” joins values, the source holds several entries; their conditions need not be identical. Identical values can stand only once. Toxic doses and inconclusive results are not listed.

As to `N#CC1(OC2OC(CO)C(O)C(O)C2O)C=CC(O)C1` (configuration not stated), the T/C by setting is: (dose: 25.0 mg/kg/injection, schedule: Q01DX005 (ip), vehicle: saline) 91 % of control; (dose: 50.0 mg/kg/injection, schedule: Q01DX005 (ip), vehicle: saline) 94 % of control; (dose: 100.0 mg/kg/injection, schedule: Q01DX005 (ip), vehicle: saline) 106 % of control.
Regarding `COc1cccc2c1C(=O)c1c(O)c3c(c(O)c1C2=O)CC(O)(C(=O)CO)CC3OC1CC(NCC2(O)OCC(O)C(O)C2O)C(O)C(C)O1` (configuration not stated), the T/C is, setting by setting: (dose: 14.5 mg/kg/injection, schedule: Q04DX003 (ip), vehicle: water) 179 % of control; (dose: 29.0 mg/kg/injection, schedule: Q04DX003 (ip), vehicle: water) 239 % of control; (dose: 58.0 mg/kg/injection, schedule: Q04DX003 (ip), vehicle: water) 116 % of control.
As for `CN(C)c1ccc(C=Nc2ccc3ccc4cccc5ccc2c3c45)cc1`, the T/C reads like this: under setting [1], 101 % of control; under setting [2], 102 % of control; (dose: 200.0 mg/kg/injection, schedule: Q01DX009 (ip), vehicle: Klucel (hydroxypropylcellulose) (HPC)) 102 % of control.
With `CNC(=O)C1OC(n2cnc3c(N)ncnc32)C(O)C1O` (configuration not stated), the T/C by setting is: (dose: 0.78 mg/kg/injection, schedule: Q01DX005 (ip), vehicle: saline with Tween-80) 109 % of control and 110 % of control and 120 % of control; (dose: 1.56 mg/kg/injection, schedule: Q01DX005 (ip), vehicle: saline with Tween-80) 113 % of control and 114 % of control and 116 % of control; (dose: 3.13 mg/kg/injection, schedule: Q01DX005 (ip), vehicle: saline with Tween-80) 117 % of control.
As for `N#CC(C(=O)C(N)=O)c1ccc(Cl)cc1Cl` (configuration not stated), the T/C by setting is: (dose: 60.0 mg/kg/injection, schedule: Q01DX005 (ip), vehicle: saline with Tween-80) 104 % of control; (dose: 120.0 mg/kg/injection, schedule: Q01DX005 (ip), vehicle: saline with Tween-80) 103 % of control; (dose: 240.0 mg/kg/injection, schedule: Q01DX005 (ip), vehicle: saline with Tween-80) 100 % of control.
For the molecule `C[N+](C)(C)CCC(=O)c1ccccc1`, the T/C under setting [3] was 99 % of control and the T/C under setting [4] was 96 % of control.
As to `CCSc1cccc2nnc(C(C)(C)C)n12`, the T/C runs as follows: (dose: 100.0 mg/kg/injection, schedule: Q01DX001 (ip), vehicle: saline with Tween-80) 98 % of control; (dose: 200.0 mg/kg/injection, schedule: Q01DX001 (ip), vehicle: saline with Tween-80) 99 % of control; (dose: 400.0 mg/kg/injection, schedule: Q01DX001 (ip), vehicle: saline with Tween-80) 97 % of control.
Consider `O=c1[nH]c2cc(Cl)ccc2nc1/C=C(\O)c1ccccn1`, for which the T/C was 92 % of control (dose: 60.0 mg/kg/injection, schedule: Q01DX005 (ip), vehicle: Klucel (hydroxypropylcellulose) (HPC)); 91 % of control (dose: 120.0 mg/kg/injection, schedule: Q01DX005 (ip), vehicle: Klucel (hydroxypropylcellulose) (HPC)); 93 % of control (dose: 240.0 mg/kg/injection, schedule: Q01DX005 (ip), vehicle: Klucel (hydroxypropylcellulose) (HPC)).
On to `CC(=O)Oc1cccn(C)c1=O`, for which the T/C was 108 % of control (dose: 37.5 mg/kg/injection, schedule: Q01DX009 (ip), vehicle: saline); 103 % of control (dose: 75.0 mg/kg/injection, schedule: Q01DX009 (ip), vehicle: saline); 113 % of control (dose: 150.0 mg/kg/injection, schedule: Q01DX009 (ip), vehicle: saline); 119 % of control (dose: 300.0 mg/kg/injection, schedule: Q01DX009 (ip), vehicle: saline); 117 % of control (dose: 500.0 mg/kg/injection, schedule: Q01DX009 (ip), vehicle: saline).
Consider `[I][Pt+2][I].[NH-]C1CCCC1[NH-]` (configuration not stated), for which, where the note is “dose: 100.0 mg/kg/injection, schedule: Q04DX002 (ip), vehicle: saline with Tween-80”, the T/C is 166 % of control.
Take `CC(N)C(=O)NC(C(=O)O)C(C)O` (configuration not stated): the T/C is 100 % of control under setting [5]; 102 % of control (dose: 50.0 mg/kg/injection, schedule: Q01DX009 (ip), vehicle: saline); 100 % of control (dose: 100.0 mg/kg/injection, schedule: Q01DX009 (ip), vehicle: saline); 99 % of control (dose: 200.0 mg/kg/injection, schedule: Q01DX009 (ip), vehicle: saline); 102 % of control (dose: 400.0 mg/kg/injection, schedule: Q01DX009 (ip), vehicle: saline).
As for `CC(C)C1CCC2(C)OC2C1=O` (configuration not stated), the T/C (dose: 25.0 mg/kg/injection, schedule: Q04DX002 (ip), vehicle: saline) is 100 % of control; the T/C (dose: 50.0 mg/kg/injection, schedule: Q04DX002 (ip), vehicle: saline) is 98 % of control; the T/C under setting [6] was 100 % of control and 101 % of control; the T/C under setting [7] was 100 % of control; the T/C (dose: 400.0 mg/kg/injection, schedule: Q04DX002 (ip), vehicle: saline) was 112 % of control.
In the case of `COc1cc(NC(=O)OCc2cccnc2)cc(OC)c1OC`, the T/C is 98 % of control under setting [8], 98 % of control under setting [9] and 93 % of control under setting [10].
Take `CC(C(=O)O)S(=O)(=O)C(C)C(=O)O` (configuration not stated): the T/C runs as follows: under setting [6], 98 % of control; under setting [7], 91 % of control.
Take `c1cc2cc3c(cc2cc1CC1NCCc2cc4c(cc21)OCO4)OCO3` (configuration not stated): the T/C runs as follows: under setting [3], 100 % of control; under setting [4], 91 % of control; under setting [1], 107 % of control; under setting [2], 91 % of control.
Regarding `CC(CNC(=O)CCBr)NC(=O)CCBr` (configuration not stated), the T/C was 105 % of control (dose: 12.5 mg/kg/injection, schedule: Q01DX009 (ip), vehicle: saline); 116 % of control under setting [5]; 116 % of control (dose: 400.0 mg/kg/injection, schedule: Q01DX009 (ip), vehicle: suspension in saline).
Turning to `Cc1cn(C2CC(O)C(C(=O)Nc3ccc(C(=O)CCl)cc3)O2)c(=O)[nH]c1=O` (configuration not stated), the T/C under setting [8] was 108 % of control, the T/C under setting [9] was 114 % of control and the T/C under setting [10] was 109 % of control.
As for `O=S(c1ccccc1)c1c(Cl)c(Cl)nc(Cl)c1Cl` (configuration not stated), the T/C is, setting by setting: (dose: 22.0 mg/kg/injection, schedule: Q01DX009 (ip), vehicle: saline with Tween-80) 100 % of control and 113 % of control; (dose: 33.0 mg/kg/injection, schedule: Q01DX009 (ip), vehicle: saline with Tween-80) 109 % of control.
On to `Cc1ccc2c(c1)sc1nc(C)cc(=O)n12`, for which the T/C runs as follows: (dose: 10.0 mg/kg/injection, schedule: Q04DX002 (ip), vehicle: Klucel (hydroxypropylcellulose) (HPC)) 106 % of control; (dose: 20.0 mg/kg/injection, schedule: Q04DX002 (ip), vehicle: Klucel (hydroxypropylcellulose) (HPC)) 97 % of control; (dose: 40.0 mg/kg/injection, schedule: Q04DX002 (ip), vehicle: Klucel (hydroxypropylcellulose) (HPC)) 95 % of control.
`COc1ccc(-c2c(CC(=O)O)c3cc(OC)ccc3n2Cc2ccc(Cl)cc2)cc1`: the T/C is 101 % of control (dose: 50.0 mg/kg/injection, schedule: Q01DX009 (ip), vehicle: saline with Tween-80); 100 % of control (dose: 100.0 mg/kg/injection, schedule: Q01DX009 (ip), vehicle: saline with Tween-80); 90 % of control (dose: 100.0 mg/kg/injection, schedule: Q04DX003 (ip), vehicle: saline with Tween-80); 100 % of control (dose: 200.0 mg/kg/injection, schedule: Q01DX009 (ip), vehicle: saline with Tween-80); 90 % of control (dose: 200.0 mg/kg/injection, schedule: Q04DX003 (ip), vehicle: saline with Tween-80); 91 % of control (dose: 400.0 mg/kg/injection, schedule: Q01DX009 (ip), vehicle: saline with Tween-80). Besides, the T/C (dose: 400.0 mg/kg/injection, schedule: Q04DX003 (ip), vehicle: saline with Tween-80) was 90 % of control.
In the case of `Cn1nnnc1CC(=O)O`, the T/C was 99 % of control (dose: 100.0 mg/kg/injection, schedule: Q04DX003 (ip), vehicle: saline); 108 % of control (dose: 200.0 mg/kg/injection, schedule: Q04DX003 (ip), vehicle: saline); 103 % of control (dose: 400.0 mg/kg/injection, schedule: Q04DX003 (ip), vehicle: saline).
For `CCOC(=O)C1=C(SC)SC(C(=O)OCC)C2C=C(C)C=CN12` (configuration not stated), the T/C is, setting by setting: (dose: 15.0 mg/kg/injection, schedule: Q01DX005 (ip), vehicle: Klucel + Tween-80) 97 % of control; (dose: 30.0 mg/kg/injection, schedule: Q01DX005 (ip), vehicle: Klucel + Tween-80) 108 % of control; (dose: 60.0 mg/kg/injection, schedule: Q01DX005 (ip), vehicle: Klucel + Tween-80) 104 % of control and 96 % of control.
